target: T1, Recombinant human α-L-iduronidase protein (Homo sapiens, UniProt P35475); assay: Differential scanning fluorimetry (DSF) thermal stabilization; format: binding; settings: commercially available Examples 8-37; ΔTm class;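 also: Classes count stabilization of α-L-iduronidase despite the GALC label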
T1 construct: purchased R&D
T1 sequence (P35475 28-653): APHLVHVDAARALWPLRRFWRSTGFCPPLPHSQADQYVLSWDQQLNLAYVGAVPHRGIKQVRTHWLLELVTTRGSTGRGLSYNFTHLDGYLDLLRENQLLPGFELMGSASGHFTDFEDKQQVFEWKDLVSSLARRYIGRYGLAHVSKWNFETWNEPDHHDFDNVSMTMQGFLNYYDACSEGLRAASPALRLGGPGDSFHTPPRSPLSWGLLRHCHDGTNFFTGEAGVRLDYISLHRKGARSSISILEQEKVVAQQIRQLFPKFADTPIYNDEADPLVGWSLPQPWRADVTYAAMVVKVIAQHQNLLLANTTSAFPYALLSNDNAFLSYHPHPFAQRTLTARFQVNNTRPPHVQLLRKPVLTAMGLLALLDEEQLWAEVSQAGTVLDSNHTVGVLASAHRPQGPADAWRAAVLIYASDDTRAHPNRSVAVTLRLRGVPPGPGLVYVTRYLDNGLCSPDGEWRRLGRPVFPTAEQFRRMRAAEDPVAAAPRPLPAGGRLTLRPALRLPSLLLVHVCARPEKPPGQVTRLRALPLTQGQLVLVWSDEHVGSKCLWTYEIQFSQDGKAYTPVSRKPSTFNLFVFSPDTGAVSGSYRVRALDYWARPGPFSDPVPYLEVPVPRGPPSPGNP
Experimental: The capacity of Compounds of the Disclosure to stabilize α-L-iduronidase was assessed by differential scanning fluorimetry technique. The thermal denaturation of purified human native enzyme was monitored in the presence of the extrinsic fluorescent probe SYPRO Orange (Sigma-Aldrich, St. Louis, MO). The tested compounds were dissolved in 100% DMSO and diluted into the protein buffer to achieve final concentrations of 1% DMSO.
Recombinant human α-L-iduronidase protein (purchased from R&D) 12.5 µL of 1.5 µM in 100 mM Hepes 20 mM MgCl2 pH 7 (protein final concentration 0.75 µM) with Sypro Orange 10X and 12.5 µl of the different compound solutions were dispensed into 96-well PCR-plates. The intensity of SYPRO Orange fluorescence after a systematic increase of temperature was monitored in the Roche LightCycler® 480 II device (Roche Diagnostics).
The capacity to stabilize α-L-iduronidase is denoted as follows: • ΔTm GALC > 1 is shown as A; • ΔTm GALC between 0.5 and 1 is shown as B; • ΔTm GALC between 0.1 and 0.5 is shown as C; and • ΔTm GALC less than 0.1 is shown as D.

SMILES | DSF Activity range
Cc1cccc(C)c1NC(=O)CN(C)Cc1nc2ccccc2c(=O)[nH]1 [Example 23, N-(2,6-dimethylphenyl)-2-(methyl((4-oxo-3,4-dihydroquinazolin-2-yl)methyl)amino)acetamide] | B (ΔTm GALC between 0.5 and 1 is shown as B)
O=C(Nc1ccccc1)C1CCCN1Cc1nc2ccccc2c(=O)[nH]1 (centres unmarked) [Example 24, 1-((4-oxo-3,4-dihydroquinazolin-2-yl)methyl)-N-phenylpyrrolidine-2-carboxamide] | B (ΔTm GALC between 0.5 and 1 is shown as B)
CCN(CC(=O)Nc1c(Cl)cccc1Cl)Cc1nc2ccccc2c(=O)[nH]1 [Example 16, N-(2,6-dichlorophenyl)-2-(ethyl((4-oxo-3,4-dihydroquinazolin-2-yl)methyl)amino)acetamide] | B (ΔTm GALC between 0.5 and 1 is shown as B)
Cc1ccc(NC(=O)CN(C)Cc2nc3c(cnn3C)c(=O)[nH]2)cc1 [Example 31, 2-(methyl((1-methyl-4-oxo-4,5-dihydro-1H-pyrazolo[3,4-d]pyrimidin-6-yl)methyl)amino)-N-(p-tolyl)acetamide] | C (ΔTm GALC between 0.1 and 0.5 is shown as C)
CN(CC(=O)N1CCCC1)Cc1nc2c(cnn2C)c(=O)[nH]1 [Example 35, 1-methyl-6-((methyl(2-oxo-2-(pyrrolidin-1-yl)ethyl)amino)methyl)-1,5-dihydro-4H-pyrazolo[3,4-d]pyrimidin-4-one] | B (ΔTm GALC between 0.5 and 1 is shown as B)
CCN(CC(=O)Nc1ccccc1C)Cc1nc2ccccc2c(=O)[nH]1 [Example 20, 2-(ethyl((4-oxo-3,4-dihydroquinazolin-2-yl)methyl)amino)-N-(o-tolyl)acetamide] | B (ΔTm GALC between 0.5 and 1 is shown as B)
CN(CC(=O)N1CCCc2ccccc21)Cc1nc2ccccc2c(=O)[nH]1 [Example 29, 2-(((2-(3,4-dihydroquinolin-1(2H)-yl)-2-oxoethyl)(methyl)amino)methyl)quinazolin-4(3H)-one] | B (ΔTm GALC between 0.5 and 1 is shown as B)
CCCN(CC(=O)N1CCc2ccccc21)Cc1nc2ccsc2c(=O)[nH]1 [Example 15, 2-(((2-(indolin-1-yl)-2-oxoethyl)(propyl)amino)methyl)thieno[3,2-d]pyrimidin-4(3H)-one] | D (ΔTm GALC less than 0.1 is shown as D)
CN(CC(=O)N(C)C)Cc1nc2c(cnn2C)c(=O)[nH]1 [Example 36, N,N-dimethyl-2-(methyl((1-methyl-4-oxo-4,5-dihydro-1H-pyrazolo[3,4-d]pyrimidin-6-yl)methyl)amino)acetamide] | B (ΔTm GALC between 0.5 and 1 is shown as B)
CCN(CC(=O)Nc1ccccc1)Cc1nc2ccccc2c(=O)[nH]1 [Example 19, 2-(ethyl((4-oxo-3,4-dihydroquinazolin-2-yl)methyl)amino)-N-phenylacetamide] | C (ΔTm GALC between 0.1 and 0.5 is shown as C)
CCN(CC(=O)NCC(C)C)Cc1nc2ccccc2c(=O)[nH]1 [Example 26, 2-(ethyl((4-oxo-3,4-dihydroquinazolin-2-yl)methyl)amino)-N-isobutylacetamide] | B (ΔTm GALC between 0.5 and 1 is shown as B)
COCCN(CC(=O)Nc1ccc(C)cc1)Cc1nc2ccccc2c(=O)[nH]1 [Example 17, 2-((2-methoxyethyl)((4-oxo-3,4-dihydroquinazolin-2-yl)methyl)amino)-N-(p-tolyl)acetamide] | B (ΔTm GALC between 0.5 and 1 is shown as B)
CN(CC(=O)Nc1cccc(F)c1)Cc1nc2ccsc2c(=O)[nH]1 [Example 9, N-(3-fluorophenyl)-2-(methyl((4-oxo-3,4-dihydrothieno[3,2-d]pyrimidin-2-yl)methyl)amino)acetamide] | A (ΔTm GALC > 1 is shown as A)
CN(CC(=O)Nc1cccc2ncccc12)Cc1nc2ccccc2c(=O)[nH]1 [Example 21, 2-(methyl((4-oxo-3,4-dihydroquinazolin-2-yl)methyl)amino)-N-(quinolin-5-yl)acetamide] | B (ΔTm GALC between 0.5 and 1 is shown as B)

same assay, conditions: synthetized Examples 1-7; ΔTm class

SMILES | DSF Activity range
CN(CC(=O)N(C)c1ccccc1Cl)Cc1nc(O)c2cnn(-c3ccccc3)c2n1 [Example 1, N-(2-chlorophenyl)-2-(((4-hydroxy-1-phenyl-1H-pyrazolo[3,4-d]pyrimidin-6-yl)methyl)(methyl)amino)-N-methylacetamide] | A (ΔTm GALC > 1 is shown as A)
Cc1ccccc1-n1ncc2c(O)nc(CN(C)CC(=O)N(C)c3ccccc3Cl)nc21 [Example 2, N-(2-chlorophenyl)-2-(((4-hydroxy-1-o-tolyl-1H-pyrazolo[3,4-d]pyrimidin-6-yl)methyl)(methyl)amino)-N-methylacetamide] | C (ΔTm GALC between 0.1 and 0.5 is shown as C)

same assay, conditions: synthetized Examples 38-94; ΔTm class

SMILES | DSF Activity range
Cc1ccc2nc(CN(CC(=O)N(C)c3ccccc3Cl)C3CC3)[nH]c(=O)c2c1 [Example 78, 2-(N-cyclopropyl-N-((3,4-dihydro-6-methyl-4-oxoquinazolin-2-yl)methyl)amino)-N-(2-chlorophenyl)-N-methylacetamide] | D (ΔTm GALC less than 0.1 is shown as D)
CN(CC(=O)N(C)c1cccc(F)c1)Cc1nc2c(cnn2C)c(=O)[nH]1 [Example 94] | B (ΔTm GALC between 0.5 and 1 is shown as B)
CCN(CC(=O)N(C)c1nc(C)cs1)Cc1nc2ccc(F)cc2c(=O)[nH]1 [Example 67, 2-(ethyl((6-fluoro-4-oxo-3,4-dihydroquinazolin-2-yl)methyl)amino)-N-methyl-N-(4-methylthiazol-2-yl)acetamide] | B (ΔTm GALC between 0.5 and 1 is shown as B)
Cc1csc(N(C)C(=O)CN(C)Cc2nc3c(C)csc3c(=O)[nH]2)n1 [Example 48, N-methyl-2-(methyl((7-methyl-4-oxo-3,4-dihydrothieno[3,2-d]pyrimidin-2-yl)methyl)amino)-N-(4-methylthiazol-2-yl)acetamide] | C (ΔTm GALC between 0.1 and 0.5 is shown as C)
CN(CC(=O)N(C)c1cccc(F)c1)Cc1nc2cc(F)ccc2c(=O)[nH]1 [Example 77] | C (ΔTm GALC between 0.1 and 0.5 is shown as C)
Cc1ccc2c(=O)[nH]c(CN(C)CC(=O)N(C)c3ccccc3Cl)nc2c1 [Example 70, 2-(N-((3,4-dihydro-7-methyl-4-oxoquinazolin-2-yl)methyl)-N-methylamino)-N-(2-chlorophenyl)-N-methylacetamide] | B (ΔTm GALC between 0.5 and 1 is shown as B)
CCN(CC(=O)N(C)c1ccccc1Cl)Cc1nc2cc(C)ccc2c(=O)[nH]1 [Example 84] | C (ΔTm GALC between 0.1 and 0.5 is shown as C)
CN(CC(=O)N(C)c1ccccc1Cl)Cc1nc2ccc(F)cc2c(=O)[nH]1 [Example 59] | B (ΔTm GALC between 0.5 and 1 is shown as B)
CCN(CC(=O)N(C)c1ccccc1Cl)Cc1nc2ccc(F)cc2c(=O)[nH]1 [Example 60] | B (ΔTm GALC between 0.5 and 1 is shown as B)
Cc1csc2c(=O)[nH]c(CN(C)CC(=O)N(C)c3ccccc3Cl)nc12 [Example 41] | C (ΔTm GALC between 0.1 and 0.5 is shown as C)
Cc1csc2c(=O)[nH]c(CN(CC(=O)N(C)c3ccccc3Cl)C3CC3)nc12 [Example 43] | D (ΔTm GALC less than 0.1 is shown as D)
CN(C(=O)CN(Cc1nc2cc(F)ccc2c(=O)[nH]1)C1CC1)c1ccccc1Cl [Example 65] | D (ΔTm GALC less than 0.1 is shown as D)
CCCN(CC(=O)N(C)c1ccccc1Cl)Cc1nc2ccc(C)cc2c(=O)[nH]1 [Example 80] | B (ΔTm GALC between 0.5 and 1 is shown as B)
CN(CC(=O)N(C)c1ccccc1Cl)Cc1nc2c(cnn2C)c(=O)[nH]1 [Example 92] | B (ΔTm GALC between 0.5 and 1 is shown as B)
Cc1ccc2nc(CN(C)CC(=O)N(C)c3ccc(Cl)c(Cl)c3)[nH]c(=O)c2c1 [Example 89, 2-(N-((3,4-dihydro-6-methyl-4-oxoquinazolin-2-yl)methyl)-N-methylamino)-N-(3,4-dichlorophenyl)-N-methylacetamide] | B (ΔTm GALC between 0.5 and 1 is shown as B)
Cc1ccc2c(=O)[nH]c(CN(C)CC(=O)N(C)c3ccc(Cl)c(Cl)c3)nc2c1 [Example 88, 2-(N-((3,4-dihydro-7-methyl-4-oxoquinazolin-2-yl)methyl)-N-methylamino)-N-(3,4-dichlorophenyl)-N-methylacetamide] | B (ΔTm GALC between 0.5 and 1 is shown as B)
